Results published in ChEMBL document CHEMBL5036317, “Identification of Unique Quinazolone Thiazoles as Novel Structural Scaffolds for Potential Gram-Negative Bacterial Conquerors” (J Med Chem, 2021).
In brackets after ≈: the same amount, converted by molar mass.

Experiments:
Staphylococcus aureus [1] = assay: Antibacterial activity against methicillin-resistant Staphylococcus aureus assessed as inhibition of bacterial growth measured after 24 hrs by two-fold serial dilution method; assay type: functional
Enterococcus faecalis = assay: Antibacterial activity against Enterococcus faecalis assessed as inhibition of bacterial growth measured after 24 hrs by two-fold serial dilution method; assay type: functional
Staphylococcus aureus [2] = assay: Antibacterial activity against Staphylococcus aureus assessed as inhibition of bacterial growth measured after 24 hrs by two-fold serial dilution method; assay type: functional
Staphylococcus aureus [3] = assay: Antibacterial activity against Staphylococcus aureus ATCC 25923 assessed as inhibition of bacterial growth measured after 24 hrs by two-fold serial dilution method; assay type: functional
Staphylococcus aureus [4] = assay: Antibacterial activity against Staphylococcus aureus ATCC 29213 assessed as inhibition of bacterial growth measured after 24 hrs by two-fold serial dilution method; assay type: functional
Klebsiella pneumoniae = assay: Antibacterial activity against Klebsiella pneumoniae assessed as inhibition of bacterial growth measured after 24 hrs by two-fold serial dilution method; assay type: functional
Escherichia coli [5] = assay: Antibacterial activity against Escherichia coli assessed as inhibition of bacterial growth measured after 24 hrs by two-fold serial dilution method; assay type: functional
Pseudomonas aeruginosa [6] = assay: Antibacterial activity against Pseudomonas aeruginosa assessed as inhibition of bacterial growth measured after 24 hrs by two-fold serial dilution method; assay type: functional
Acinetobacter baumannii = assay: Antibacterial activity against Acinetobacter baumanii assessed as inhibition of bacterial growth measured after 24 hrs by two-fold serial dilution method; assay type: functional
Pseudomonas aeruginosa [7] = assay: Antibacterial activity against Pseudomonas aeruginosa ATCC 27853 assessed as inhibition of bacterial growth measured after 24 hrs by two-fold serial dilution method; assay type: functional
Escherichia coli [8] = assay: Antibacterial activity against Escherichia coli ATCC 25922 assessed as inhibition of bacterial growth measured after 24 hrs by two-fold serial dilution method; assay type: functional
[9] = Haemolytic activity in human erythrocytes incubated for 2 hrs; assay type: ADME, cell-based, Erythrocyte

Row | SMILES | MIC (Staphylococcus aureus [1]) [µg/mL] | MIC (Enterococcus faecalis) [µg/mL] | MIC (Staphylococcus aureus [2]) [µg/mL] | MIC (Staphylococcus aureus [3]) [µg/mL] | MIC (Staphylococcus aureus [4]) [µg/mL] | MIC (Klebsiella pneumoniae) [µg/mL] | MIC (Escherichia coli [5]) [µg/mL] | MIC (Pseudomonas aeruginosa [6]) [µg/mL] | MIC (Acinetobacter baumannii) [µg/mL] | MIC (Pseudomonas aeruginosa [7]) [µg/mL] | MIC (Escherichia coli [8]) [µg/mL] | HC50 at 2 h [9] [µg/mL]
1 | O=C(/C(=C/c1ccc(F)cc1F)n1cnc2cc(Cl)ccc2c1=O)c1nccs1 | 8 (≈ 18.6 µM) | 8 (≈ 18.6 µM) | 8 (≈ 18.6 µM) | 2 (≈ 4.65 µM) | 8 (≈ 18.6 µM) | 8 (≈ 18.6 µM) | 8 (≈ 18.6 µM) | 8 (≈ 18.6 µM) | 2 (≈ 4.65 µM) | 4 (≈ 9.31 µM) | 2 (≈ 4.65 µM) | 203
2 | N#Cc1ccc(/C=C(/C(=O)c2nccs2)n2cnc3cc(Cl)ccc3c2=O)cc1 | 4 (≈ 9.55 µM) | 1 (≈ 2.39 µM) | 32 (≈ 76.4 µM) | 1 (≈ 2.39 µM) | 1 (≈ 2.39 µM) | 8 (≈ 19.1 µM) | 16 (≈ 38.2 µM) | 2 (≈ 4.77 µM) | 512 (≈ 1220 µM) | 2 (≈ 4.77 µM) | 4 (≈ 9.55 µM) | > 250
3 | O=C(/C(=C/c1ccccc1)n1cnc2cc(Cl)ccc2c1=O)c1nccs1 | 4 (≈ 10.2 µM) | 1 (≈ 2.54 µM) | 8 (≈ 20.3 µM) | 2 (≈ 5.08 µM) | 2 (≈ 5.08 µM) | 2 (≈ 5.08 µM) | 8 (≈ 20.3 µM) | 4 (≈ 10.2 µM) | 4 (≈ 10.2 µM) | 2 (≈ 5.08 µM) | 4 (≈ 10.2 µM) | 222
4 | O=C(/C(=C/c1ccc(Cl)cc1)n1cnc2cc(Cl)ccc2c1=O)c1nccs1 | 8 (≈ 18.7 µM) | 4 (≈ 9.34 µM) | 16 (≈ 37.4 µM) | 4 (≈ 9.34 µM) | 4 (≈ 9.34 µM) | 64 (≈ 149 µM) | 16 (≈ 37.4 µM) | 2 (≈ 4.67 µM) | 256 (≈ 598 µM) | 1 (≈ 2.33 µM) | 2 (≈ 4.67 µM) | > 250
5 | O=C(/C(=C/c1cccs1)n1cnc2cc(Cl)ccc2c1=O)c1nccs1 | 512 (≈ 1280 µM) | 512 (≈ 1280 µM) | 16 (≈ 40 µM) | 16 (≈ 40 µM) | 16 (≈ 40 µM) | 32 (≈ 80 µM) | 512 (≈ 1280 µM) | 64 (≈ 160 µM) | 512 (≈ 1280 µM) | 64 (≈ 160 µM) | 32 (≈ 80 µM) | 211
6 | O=C(/C(=C/c1ccccc1Cl)n1cnc2cc(Cl)ccc2c1=O)c1nccs1 | 2 (≈ 4.67 µM) | 1 (≈ 2.33 µM) | 16 (≈ 37.4 µM) | 1 (≈ 2.33 µM) | 4 (≈ 9.34 µM) | 4 (≈ 9.34 µM) | 8 (≈ 18.7 µM) | 2 (≈ 4.67 µM) | 512 (≈ 1200 µM) | 2 (≈ 4.67 µM) | 2 (≈ 4.67 µM) | 195
7 | Cc1ccc(/C=C(/C(=O)c2nccs2)n2cnc3cc(Cl)ccc3c2=O)c(C)c1 | 512 (≈ 1210 µM) | 512 (≈ 1210 µM) | 512 (≈ 1210 µM) | 512 (≈ 1210 µM) | 4 (≈ 9.48 µM) | 512 (≈ 1210 µM) | 512 (≈ 1210 µM) | 64 (≈ 152 µM) | 128 (≈ 303 µM) | 64 (≈ 152 µM) | 64 (≈ 152 µM) | 203
8 | CCn1cc(/C=C(/C(=O)c2nccs2)n2cnc3cc(Cl)ccc3c2=O)c2ccccc21 | 512 (≈ 1110 µM) | 512 (≈ 1110 µM) | 512 (≈ 1110 µM) | 512 (≈ 1110 µM) | 1 (≈ 2.17 µM) | 512 (≈ 1110 µM) | 512 (≈ 1110 µM) | 128 (≈ 278 µM) | 128 (≈ 278 µM) | 32 (≈ 69.4 µM) | 512 (≈ 1110 µM) | > 250
9 | O=C(/C(=C/c1c[nH]c2ccccc12)n1cnc2cc(Cl)ccc2c1=O)c1nccs1 | 256 (≈ 591 µM) | 256 (≈ 591 µM) | 64 (≈ 148 µM) | 64 (≈ 148 µM) | 64 (≈ 148 µM) | 128 (≈ 296 µM) | 64 (≈ 148 µM) | 256 (≈ 591 µM) | 256 (≈ 591 µM) | 64 (≈ 148 µM) | 64 (≈ 148 µM) | > 250
